Measured values as given in ChEMBL document CHEMBL1133601, “Methyl-substituted dispiro-1,2,4,5-tetraoxanes: correlations of structural studies with antimalarial activity” (J Med Chem, 2000).

Assays:
Plasmodium falciparum [1] = assay: In vitro antimalarial activity against Plasmodium falciparum W2 (Indochina); type: functional, organism-based
Plasmodium falciparum [2] = assay: In vitro antimalarial activity against Plasmodium falciparum D6 (Sierra Leone); type: functional, organism-based

| Compound | IC50 (Plasmodium falciparum [1]) [nM] | IC50 (Plasmodium falciparum [2]) [nM] |
| --- | --- | --- |
| C[C@@H]1CC[C@H]2[C@@H](C)C(=O)O[C@@H]3O[C@@]4(C)CC[C@@H]1[C@]32OO4 [ARTEMISININ] | 7.3 | 8.4 |
| C[C@@H]1CCC[C@@H](C)C12OOC1(OO2)[C@@H](C)CCC[C@@H]1C | > 1000 | > 1000 |
| CC1(C)CCCCC12OOC1(CCCCC1(C)C)OO2 (stereo unspecified) | > 1000 | > 1000 |
